These results are taken from patent US20240051985A1, “METTL3 MODULATORS” (ACCENT THERAPEUTICS, INC., priority 2020, published 2024).

SMILES strings stand for the structures.

For one assay, the target named is PRMT5-MEP50 (Homo sapiens, UniProt O14744). As to the kind of experiment: PRMT5 assay (3H-SAM flashplate). The note with it: Table 4; PRMT5 biochemical assay. The procedure, abridged: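 Radiometric methyl-transfer read-out: 3H-methyl transferred to a 3′-biotinylated, acetylated H4 peptide substrate (100 nM) from 3H-SAM (250 nM), captured on streptavidin scintillation plates. Enzyme complex 2.5 nM, pH 8.0 Tris buffer with DTT and Tween, compound preincubation 5 min, 60 min reaction stopped with excess unlabeled SAM.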
Sequence of PRMT5-MEP50 (O14744 whole entry): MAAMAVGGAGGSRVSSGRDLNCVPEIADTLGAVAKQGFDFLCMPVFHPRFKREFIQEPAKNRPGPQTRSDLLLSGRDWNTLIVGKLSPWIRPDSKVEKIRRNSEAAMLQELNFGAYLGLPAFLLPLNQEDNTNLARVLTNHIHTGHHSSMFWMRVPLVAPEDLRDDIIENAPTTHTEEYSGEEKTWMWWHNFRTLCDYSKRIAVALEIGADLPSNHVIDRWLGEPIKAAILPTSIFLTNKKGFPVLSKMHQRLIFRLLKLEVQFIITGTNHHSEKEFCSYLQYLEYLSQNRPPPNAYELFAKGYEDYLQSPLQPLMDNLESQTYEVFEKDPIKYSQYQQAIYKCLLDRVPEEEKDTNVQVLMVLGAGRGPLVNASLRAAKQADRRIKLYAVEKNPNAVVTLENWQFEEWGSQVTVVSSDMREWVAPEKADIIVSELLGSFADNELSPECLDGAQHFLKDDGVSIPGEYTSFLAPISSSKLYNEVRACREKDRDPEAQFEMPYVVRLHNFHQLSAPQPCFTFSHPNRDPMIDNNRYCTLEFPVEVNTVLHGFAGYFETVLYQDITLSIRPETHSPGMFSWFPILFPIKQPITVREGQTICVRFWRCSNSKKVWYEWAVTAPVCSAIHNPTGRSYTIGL
Sequence of PRMT5-MEP50 (Q9BQA1 whole entry partner): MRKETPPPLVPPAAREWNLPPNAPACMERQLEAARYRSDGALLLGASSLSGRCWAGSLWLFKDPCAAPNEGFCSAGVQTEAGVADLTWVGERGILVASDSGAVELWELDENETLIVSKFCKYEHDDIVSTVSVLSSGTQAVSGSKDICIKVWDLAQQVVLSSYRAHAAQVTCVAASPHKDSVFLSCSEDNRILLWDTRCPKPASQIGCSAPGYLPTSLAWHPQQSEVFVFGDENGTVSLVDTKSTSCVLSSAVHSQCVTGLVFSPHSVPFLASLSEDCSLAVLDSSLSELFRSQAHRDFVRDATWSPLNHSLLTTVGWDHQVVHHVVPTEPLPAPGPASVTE

Another assay concerns the target METTL3/METTL14 (Homo sapiens, UniProt Q86U44). As to the kind of experiment: METTL3-14 standard enzyme assay (3H-SAM flashplate). The note with it: Table 4; METTL3 biochemical assay. Summed up:
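Radiometric methyltransferase read-out: after quenching with excess unlabelled SAM (15 μM), biotinylated RNA was captured on streptavidin flashplates (2 h, 25° C) and counted. Reactions contained 2.5 nM enzyme (5 min preincubation), 100 nM RNA and 100 nM 3H-SAM, ran 30 min in HEPES pH 7.5 buffer with KCl, MgCl2, DTT.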

Another assay addresses T1, FLT3-ITD (Homo sapiens, UniProt P36888).
T1 sequence (P36888 1-993): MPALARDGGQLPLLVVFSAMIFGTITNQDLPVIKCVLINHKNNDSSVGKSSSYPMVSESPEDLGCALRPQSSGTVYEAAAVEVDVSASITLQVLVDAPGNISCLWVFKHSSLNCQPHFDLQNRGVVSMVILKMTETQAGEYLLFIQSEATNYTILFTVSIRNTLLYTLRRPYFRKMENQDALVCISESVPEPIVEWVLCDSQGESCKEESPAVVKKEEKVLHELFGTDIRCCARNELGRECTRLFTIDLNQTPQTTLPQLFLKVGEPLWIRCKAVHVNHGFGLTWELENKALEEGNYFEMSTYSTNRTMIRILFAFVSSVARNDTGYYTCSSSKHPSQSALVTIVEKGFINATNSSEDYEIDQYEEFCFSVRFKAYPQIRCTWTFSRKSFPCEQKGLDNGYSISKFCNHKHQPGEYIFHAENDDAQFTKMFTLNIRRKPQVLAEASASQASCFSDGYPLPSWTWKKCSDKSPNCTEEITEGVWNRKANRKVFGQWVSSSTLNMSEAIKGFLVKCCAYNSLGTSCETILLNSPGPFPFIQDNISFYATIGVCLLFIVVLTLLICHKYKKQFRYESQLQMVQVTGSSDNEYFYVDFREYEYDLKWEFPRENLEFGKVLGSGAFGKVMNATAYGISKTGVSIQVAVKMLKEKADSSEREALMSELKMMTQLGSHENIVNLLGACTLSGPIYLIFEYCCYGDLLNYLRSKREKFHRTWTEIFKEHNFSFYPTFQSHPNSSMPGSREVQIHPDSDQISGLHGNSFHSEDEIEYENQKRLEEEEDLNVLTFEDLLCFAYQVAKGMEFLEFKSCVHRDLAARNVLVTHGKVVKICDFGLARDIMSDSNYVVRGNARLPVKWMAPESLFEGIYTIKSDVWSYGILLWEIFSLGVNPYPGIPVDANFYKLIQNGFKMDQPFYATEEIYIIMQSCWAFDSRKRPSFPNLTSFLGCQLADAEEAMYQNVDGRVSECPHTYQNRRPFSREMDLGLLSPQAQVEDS
As to the kind of experiment: FLT3-ITD LanthaScreen assay. It counts as biochemical. The note with it: Table 4. As to the method:
(§1) FLT3/FLT3-ITD LanthaScreen Assays
(§2) Assays were performed in a 10 μl-volume in 384-well polypropylene microplates (Perkin Elmer Proxiplate, cat. No. 6059480) at ambient temperature. Optimized 1× assay buffer was 50 mM Hepes pH 7.5, 2 mM DTT, 0.01% Tween, 0.01% BSA, 10 mM MgCl2. For compound screening FLT3 (final concentration, f.c.=[…]) or FLT3-ITD (f.c.=[…]) was added using a Multidrop Combi (ThermoFisher Scientific, Waltham, MA) and preincubated for 10 min. Reactions were started by adding fluorescein-poly GT (f.c.=200 nM) and ATP (f.c.=57 μM) substrates. Reactions proceeded for 40 minutes. The reactions were stopped with a detection mixture of EDTA (f.c.=20 mM) and terbium-conjugated anti-phoso tyrosine antibody pY20 (f.c.=2 nM). The plates were sealed and read on an Envision (PerkinElmer, Waltham, MA) using 340 nm excitation and emission reads at 495 and 520 nM.
For orientation: TR-FRET usually uses a lanthanide donor and a delayed reading to cut background.

For the next assay, the target named is T2, FLT3 (Homo sapiens, UniProt P36888).
T2 sequence (P36888 27-993): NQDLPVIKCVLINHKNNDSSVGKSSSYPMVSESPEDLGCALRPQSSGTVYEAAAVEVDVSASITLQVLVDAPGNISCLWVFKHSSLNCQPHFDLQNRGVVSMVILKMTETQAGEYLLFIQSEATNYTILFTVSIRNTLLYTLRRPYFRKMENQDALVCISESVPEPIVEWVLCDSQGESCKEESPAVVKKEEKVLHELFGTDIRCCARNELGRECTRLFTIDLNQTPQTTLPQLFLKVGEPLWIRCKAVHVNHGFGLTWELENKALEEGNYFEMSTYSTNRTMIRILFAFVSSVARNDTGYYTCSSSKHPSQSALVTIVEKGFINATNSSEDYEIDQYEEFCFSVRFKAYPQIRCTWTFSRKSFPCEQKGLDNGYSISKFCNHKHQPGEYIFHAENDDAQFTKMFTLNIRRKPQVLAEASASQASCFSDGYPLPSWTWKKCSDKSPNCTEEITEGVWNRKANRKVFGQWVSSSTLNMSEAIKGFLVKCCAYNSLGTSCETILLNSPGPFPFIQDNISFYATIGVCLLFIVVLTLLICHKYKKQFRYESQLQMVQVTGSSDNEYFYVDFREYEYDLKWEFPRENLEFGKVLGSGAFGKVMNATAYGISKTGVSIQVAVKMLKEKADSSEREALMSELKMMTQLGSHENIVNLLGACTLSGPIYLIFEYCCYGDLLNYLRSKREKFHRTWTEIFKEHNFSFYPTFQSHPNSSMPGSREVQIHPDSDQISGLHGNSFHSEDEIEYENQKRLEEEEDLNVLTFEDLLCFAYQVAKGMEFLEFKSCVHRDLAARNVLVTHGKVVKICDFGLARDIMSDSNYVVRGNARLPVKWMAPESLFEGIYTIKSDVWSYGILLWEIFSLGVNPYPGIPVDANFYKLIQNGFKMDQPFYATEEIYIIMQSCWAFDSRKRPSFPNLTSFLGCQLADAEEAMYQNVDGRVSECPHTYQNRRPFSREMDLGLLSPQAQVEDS
As to the kind of experiment: FLT3 LanthaScreen assay. In kind it is biochemical. As to conditions: Table 4. As to the method: as §1, §2

Sequence of METTL3/METTL14 (Q86U44 whole entry, species assumed): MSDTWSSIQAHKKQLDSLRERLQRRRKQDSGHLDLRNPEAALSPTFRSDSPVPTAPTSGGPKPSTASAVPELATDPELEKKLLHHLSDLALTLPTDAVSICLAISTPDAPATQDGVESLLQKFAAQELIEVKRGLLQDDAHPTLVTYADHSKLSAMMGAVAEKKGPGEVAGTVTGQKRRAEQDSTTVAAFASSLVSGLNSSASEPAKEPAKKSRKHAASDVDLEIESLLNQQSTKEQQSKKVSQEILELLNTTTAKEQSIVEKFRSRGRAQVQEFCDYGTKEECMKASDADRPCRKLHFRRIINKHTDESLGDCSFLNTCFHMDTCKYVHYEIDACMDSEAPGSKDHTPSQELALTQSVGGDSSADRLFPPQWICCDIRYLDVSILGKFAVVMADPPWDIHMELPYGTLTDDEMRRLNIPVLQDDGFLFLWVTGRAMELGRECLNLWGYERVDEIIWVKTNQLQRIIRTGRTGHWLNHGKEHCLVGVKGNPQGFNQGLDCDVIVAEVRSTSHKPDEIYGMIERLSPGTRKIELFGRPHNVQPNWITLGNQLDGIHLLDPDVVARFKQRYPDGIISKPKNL
Sequence of METTL3/METTL14 (Q9HCE5 whole entry partner, species assumed): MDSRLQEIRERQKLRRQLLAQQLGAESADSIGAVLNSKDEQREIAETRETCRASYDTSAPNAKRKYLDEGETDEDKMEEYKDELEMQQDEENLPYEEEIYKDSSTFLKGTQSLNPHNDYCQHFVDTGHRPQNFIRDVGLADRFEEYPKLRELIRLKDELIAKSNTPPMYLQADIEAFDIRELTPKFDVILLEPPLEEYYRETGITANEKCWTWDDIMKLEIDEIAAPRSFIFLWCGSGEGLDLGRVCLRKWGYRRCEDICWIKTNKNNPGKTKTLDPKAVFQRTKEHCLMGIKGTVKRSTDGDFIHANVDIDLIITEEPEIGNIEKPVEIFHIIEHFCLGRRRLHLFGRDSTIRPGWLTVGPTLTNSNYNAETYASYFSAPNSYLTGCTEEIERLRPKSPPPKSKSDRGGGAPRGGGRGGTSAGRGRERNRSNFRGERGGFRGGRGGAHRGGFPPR

By IC50 is commonly meant the concentration at which inhibition is half-maximal. Low readings indicate greater potency in that assay, high ones weaker potency in that assay. As for `CN1CCC[C@@H](NC(=O)[C@H]2O[C@@H](n3cc(-c4ccn(C)n4)c4c(N)ncnc43)[C@H](O)[C@@H]2O)C1` [Compound I-46, (2S,3S,4R,5R)-5-[4-amino-5-(1-methyl-1H-pyrazol-3-yl)-7H-pyrrolo[2,3-d]pyrimidin-7-yl]-3,4-dihydroxy-N-[(3R)-1-methylpiperidin-3-yl]oxolane-2-carboxamide], the IC50 was 10 to 100 nM at PRMT5-MEP50, at least 1000 nM on METTL3/METTL14, at least 1000 nM at FLT3-ITD and at least 1000 nM against FLT3.

As for `CNc1ccc2ccc(NC(=O)[C@H]3O[C@@H](n4cc(-c5ccn(C)n5)c5c(N)ncnc54)[C@@H](F)[C@@H]3O)cc2n1` [Compound I-61], the IC50 was 10 to 100 nM at PRMT5-MEP50, under 10 nM on METTL3/METTL14, 100 to 1000 nM on FLT3-ITD and 100 to 1000 nM against FLT3.

`CC1CC(NC(=O)[C@H]2O[C@@H](n3cc(-c4ccn(C)n4)c4c(N)ncnc43)[C@H](O)[C@@H]2O)CCN1C` (stereo in doubt) [Compound I-231]: the IC50 against PRMT5-MEP50 was 100 to 1000 nM; at METTL3/METTL14 it was 100 to 1000 nM; against FLT3-ITD it was at least 1000 nM; against FLT3, at least 1000 nM.

Consider `Cn1ccc(-c2cn([C@@H]3O[C@H](C(=O)NC4CCc5nc[nH]c5C4)[C@@H](O)[C@H]3O)c3ncnc(N)c23)n1` (some centres unmarked) [Compound I-194], for which the IC50 was 100 to 1000 nM against PRMT5-MEP50, 10 to 100 nM at METTL3/METTL14, at least 1000 nM at FLT3-ITD and at least 1000 nM at FLT3.

Take `Cn1ccc(-c2cn([C@@H]3O[C@H](C(=O)NC4CCc5cnc(N)nc5C4)[C@@H](O)[C@H]3O)c3ncnc(N)c23)n1` (some centres unmarked) [Compound I-188]: the half-inhibitory concentration (IC50) against PRMT5-MEP50 is 100 to 1000 nM; against METTL3/METTL14, 100 to 1000 nM; against FLT3-ITD, at least 1000 nM; against FLT3, at least 1000 nM.

For the compound `Cn1ccc(-c2cn([C@@H]3O[C@H](C(=O)NC[C@H]4CC[C@@H](O)CC4)[C@@H](O)[C@H]3O)c3ncnc(N)c23)n1` [Compound I-45, (2S,3S,4R,5R)-5-[4-amino-5-(1-methyl-1H-pyrazol-3-yl)-7H-pyrrolo[2,3-d]pyrimidin-7-yl]-3,4-dihydroxy-N-{[(1s,4s)-4-hydroxycyclohexyl]methyl}oxolane-2-carboxamide], the IC50 on PRMT5-MEP50, against METTL3/METTL14, against FLT3-ITD and on FLT3 was at least 1000 nM in each case.

Take `Cn1ccc(-c2cn([C@@H]3O[C@H](C(=O)N[C@H]4CC[C@@](C)(O)CC4)[C@@H](O)[C@H]3O)c3ncnc(N)c23)n1` [Compound I-209]: the IC50 against PRMT5-MEP50 is at least 1000 nM; at METTL3/METTL14 it was 100 to 1000 nM; against FLT3-ITD, at least 1000 nM; at FLT3, at least 1000 nM.

Turning to `CN1CCC(N(CCOCCO)C(=O)[C@H]2O[C@@H](n3cc(-c4ccn(C)n4)c4c(N)ncnc43)[C@H](O)[C@@H]2O)CC1` [Compound I-177], the IC50 against PRMT5-MEP50 is 10 to 100 nM; at METTL3/METTL14, at least 1000 nM; against FLT3-ITD, at least 1000 nM; at FLT3 it was at least 1000 nM.

As to `Cn1ccc(-c2cn([C@@H]3O[C@H](C(=O)N4CCCC(NS(C)(=O)=O)C4)[C@@H](O)[C@H]3O)c3ncnc(N)c23)n1` (stereo in doubt) [Compound I-185], the IC50 at PRMT5-MEP50 is 100 to 1000 nM; against METTL3/METTL14 it was at least 1000 nM; against FLT3-ITD, at least 1000 nM; against FLT3 it was at least 1000 nM.

As to `Cn1ccc(-c2cn([C@@H]3O[C@H](C(=O)NC[C@H]4CC[C@H](O)CC4)[C@@H](O)[C@H]3O)c3ncnc(N)c23)n1` [Compound I-159], the IC50 against PRMT5-MEP50, against METTL3/METTL14, on FLT3-ITD and at FLT3 was at least 1000 nM in each case.

On to `CN1CCC(N(C(=O)[C@H]2O[C@@H](n3cc(-c4ccn(C)n4)c4c(N)ncnc43)[C@H](O)[C@@H]2O)C2CC2)CC1` [Compound I-149], for which the IC50 against PRMT5-MEP50 is under 10 nM; against METTL3/METTL14, 10 to 100 nM; at FLT3-ITD, at least 1000 nM; against FLT3, at least 1000 nM.

With `CNc1ccc2ccc(NC(=O)[C@H]3O[C@@H](n4ccc5c(N)ncnc54)[C@@H](F)[C@@H]3O)cc2n1` [Compound I-62], the IC50 on PRMT5-MEP50 is under 10 nM; against METTL3/METTL14, 100 to 1000 nM; against FLT3-ITD, at least 1000 nM; at FLT3, at least 1000 nM.

On to `C[C@H]1C[C@H](NC(=O)[C@H]2O[C@@H](n3cc(-c4ccn(C)n4)c4c(N)ncnc43)[C@H](O)[C@@H]2O)CCN1C` [Compound I-234], for which the IC50 is 100 to 1000 nM on PRMT5-MEP50, 100 to 1000 nM on METTL3/METTL14, at least 1000 nM against FLT3-ITD and at least 1000 nM on FLT3.

On to `Cn1ccc(-c2cn([C@@H]3O[C@H](C(=O)N4CCC[C@@H](NS(C)(=O)=O)C4)[C@@H](O)[C@H]3O)c3ncnc(N)c23)n1` [Compound I-151], for which the 50% inhibitory concentration (IC50) against PRMT5-MEP50, at METTL3/METTL14, against FLT3-ITD and against FLT3 was at least 1000 nM throughout.

On to `CC(O)CN(C(=O)[C@H]1O[C@@H](n2cc(-c3ccn(C)n3)c3c(N)ncnc32)[C@H](O)[C@@H]1O)C1CCN(C)CC1` (some centres unmarked) [Compound I-147], for which the concentration for half-maximal inhibition (IC50) at PRMT5-MEP50 is under 10 nM; against METTL3/METTL14 it was at least 1000 nM; on FLT3-ITD it was at least 1000 nM; against FLT3, at least 1000 nM.

In the case of `Cn1ccc(-c2cn([C@@H]3O[C@H](C(=O)NCC[C@H](N)C(=O)O)[C@@H](O)[C@H]3O)c3ncnc(N)c23)n1` [Compound I-43], the IC50 on PRMT5-MEP50 is at least 1000 nM; at METTL3/METTL14, 100 to 1000 nM; against FLT3-ITD, at least 1000 nM; at FLT3 it was at least 1000 nM.

For `CC(O)CCN(C(=O)[C@H]1O[C@@H](n2cc(-c3ccn(C)n3)c3c(N)ncnc32)[C@H](O)[C@@H]1O)C1CCN(C)CC1` (some centres unmarked) [Compound I-148], the IC50 was 10 to 100 nM at PRMT5-MEP50, at least 1000 nM at METTL3/METTL14, at least 1000 nM against FLT3-ITD and at least 1000 nM on FLT3.
